Source: patent US6472213B1, “Shuttle vectors for the introduction of DNA into mycobacteria and utilization of such bacteria as vaccines” (Institut National de la Sante et de la Recherche Medicale …, priority 1994, dated 2002)

How the values were obtained:
Type in all cases: cell-based, M. smegmatis, M. bovis BCG, M. tuberculosis
[1] = tested on: non-transformed control mycobacteria
[2] = tested on: mycobacteria carrying the plasmid pMR001
[3] = tested on: pVN2-carrying mycobacteria

[Cl][Hg][Cl] [HgCl2]
Phenotypes of resistance to mercury [1]: S
Phenotypes of resistance to mercury [2]: R
Phenotypes of resistance to mercury [3]: R
level of resistance [3]: 40 mg/mL
